Results from PMC10610214 (Pharmaceuticals, 2023).

Legend:
PC12 cells = assay: Cytotoxicity in PC12 cells (MTT); type: cell-based
Description: The cytotoxicity and neuroprotective effects of the compounds on PC12 cells were evaluated by MTT assay. PC12 cells were seeded into a 96-well plate at a density of 5.0 × 10^3 cells per well. After the cells were incubated overnight, the old medium was discarded. The cells were incubated for another 24 h with fresh medium containing compounds at a concentration of 30 or 50 μM. A total of 20 μL of MTT solution (5 mg/mL, Sigma-Aldrich, Shanghai, China) was then added per well, and the cells were incubated for an additional 4 h. Afterwards, the supernatant was removed and 150 μL of DMSO was added to solubilize formazan crystals. The 96-well plate was placed on the shaker for 10–15 min, and then the absorbance at 492 nm was measured by a microplate reader.

H2O2-induced PC12 cells = assay: Neuroprotection against H2O2-induced PC12 cell injury (MTT); type: cell-based; settings: H2O2 250 μM, mean ± SEM
Description: Neuroprotection assay is similar to cytotoxicity. Oxidative cellular damage caused by H2O2 has become one of the important methods to study oxidative damage in neural cells. PC12 cells were seeded into a 96-well plate at a density of 5.0 × 10^3 cells per well. After the cells were incubated overnight, the old medium was discarded. […] After incubating overnight, 20 μL of MTT solution (5 mg/mL, Sigma-Aldrich) was added per well, and the cells were incubated for an additional 4 h. Afterwards, the supernatant was removed and 150 μL of DMSO was added. The 96-well plate was placed on the shaker for 10–15 min, and then the absorbance at 492 nm was measured by a microplate reader.

AChE (from electric eel) = biological target: T1, AChE (from electric eel) (Electrophorus electricus, UniProt O42275); assay: biochemical; settings: for IC50: AChE from electric eel, mean ± SD of three experiments, read-out: AChE Inhibition (IC50); for Selective Index, IC50 (BChE)/IC50 (AChE): AChE selectivity index
T1 construct: AChE (from electric eel); purchased Sigma Chemical Company (St. Louis, MO, USA)
Description: (§1) The ChE inhibitory activity of the test compounds was determined using the modified Ellman’s method. The compounds were dissolved in DMSO (10 mmol/L) and then diluted with PB (phosphate buffer) solution to attain a range of final concentrations. […] Briefly, 100 μL of different concentrations of the test or standard compounds and 100 μL of AChE/BuChE (0.5 U/mL) were added into 48-well plates and then co-incubated at 37 °C for 30 min. […] All concentrations mentioned are final.

[1] = biological target: T2, BuChE (from equine serum) (Equus caballus, UniProt P81908); assay: biochemical; settings: mean ± SD of three experiments, read-out: BuChE Inhibition (IC50)
T2 construct: BuChE (from equine serum); purchased Sigma Chemical Company (St. Louis, MO, USA); host or cells: equine serum
Description: as §1

T1 sequence (O42275 24-633): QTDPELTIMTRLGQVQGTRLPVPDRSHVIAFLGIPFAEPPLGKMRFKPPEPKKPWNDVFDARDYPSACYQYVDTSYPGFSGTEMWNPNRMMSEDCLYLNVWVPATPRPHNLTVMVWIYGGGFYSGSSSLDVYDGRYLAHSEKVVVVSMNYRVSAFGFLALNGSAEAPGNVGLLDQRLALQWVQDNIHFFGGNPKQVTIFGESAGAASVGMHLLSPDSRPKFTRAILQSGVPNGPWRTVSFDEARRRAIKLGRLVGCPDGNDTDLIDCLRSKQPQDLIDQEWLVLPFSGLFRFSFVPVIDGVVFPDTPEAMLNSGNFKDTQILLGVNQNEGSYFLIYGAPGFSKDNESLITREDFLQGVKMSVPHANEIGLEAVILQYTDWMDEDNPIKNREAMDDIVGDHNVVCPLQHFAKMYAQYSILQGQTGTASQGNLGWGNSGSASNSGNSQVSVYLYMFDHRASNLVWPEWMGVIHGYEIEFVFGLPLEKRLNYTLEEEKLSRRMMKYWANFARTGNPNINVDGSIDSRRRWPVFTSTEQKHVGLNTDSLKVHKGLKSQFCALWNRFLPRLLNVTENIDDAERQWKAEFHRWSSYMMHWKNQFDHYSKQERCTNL
T2 sequence (P81908 whole entry): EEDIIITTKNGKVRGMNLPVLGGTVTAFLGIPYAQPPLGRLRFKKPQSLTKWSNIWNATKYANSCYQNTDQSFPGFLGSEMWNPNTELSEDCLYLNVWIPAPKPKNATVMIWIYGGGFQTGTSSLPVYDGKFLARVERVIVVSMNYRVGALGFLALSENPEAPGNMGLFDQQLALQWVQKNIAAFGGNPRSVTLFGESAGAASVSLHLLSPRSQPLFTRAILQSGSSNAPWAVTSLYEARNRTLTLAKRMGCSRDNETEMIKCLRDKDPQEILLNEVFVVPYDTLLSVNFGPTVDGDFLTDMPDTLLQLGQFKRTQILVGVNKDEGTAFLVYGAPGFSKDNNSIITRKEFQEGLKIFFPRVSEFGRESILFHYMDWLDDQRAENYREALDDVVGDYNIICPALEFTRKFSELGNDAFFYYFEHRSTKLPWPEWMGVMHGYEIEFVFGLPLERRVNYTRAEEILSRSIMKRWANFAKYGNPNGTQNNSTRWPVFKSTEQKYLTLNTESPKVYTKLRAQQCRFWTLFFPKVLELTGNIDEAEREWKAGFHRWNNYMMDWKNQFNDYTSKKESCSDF

Compound	Cell Viability (% of Control) (PC12 cells; compound 30 μM)	Cell Viability (% of Control) (PC12 cells; compound 50 μM)	H2O2-Induced PC12 Cell Viability (% of Control) (H2O2-induced PC12 cells; compound 10 μM)	H2O2-Induced PC12 Cell Viability (% of Control) (H2O2-induced PC12 cells; compound 30 μM)	IC50 (AChE (from electric eel))	IC50 [1]	Selective Index, IC50 (BChE)/IC50 (AChE) (AChE (from electric eel))
O=C1c2cc(NS(=O)(=O)c3ccc(Br)cc3)ccc2-n2c1nc1ccccc1c2=O [4e]	99.6 ± 2.1 % of Control	99.5 ± 2.3 % of Control	42.8 ± 1.5 % of Control	57.51 ± 0.8 % of Control	33 ± 1.91 µM	> 50 µM	
O=C1c2ccccc2-n2c1nc1ccc(NS(=O)(=O)c3c(Cl)cccc3Cl)cc1c2=O [8p]	99.6 ± 2.7 % of Control	98.2 ± 1.7 % of Control	42.32 ± 0.7 % of Control	50.5 ± 0.5 % of Control	> 50 µM	> 50 µM	
O=C1c2ccccc2-n2c1nc1ccc(NS(=O)(=O)c3ccc(OC(F)(F)F)cc3)cc1c2=O [8m]	99.5 ± 3.1 % of Control	98.2 ± 1.7 % of Control	44.67 ± 2.3 % of Control	53.92 ± 3.9 % of Control	> 50 µM	> 50 µM	
O=C1c2cc(NS(=O)(=O)c3ccccc3C(F)(F)F)ccc2-n2c1nc1ccccc1c2=O [4o]	99.6 ± 2.7 % of Control	98.2 ± 1.7 % of Control	42.32 ± 0.7 % of Control	50.5 ± 0.5 % of Control	2.45 ± 0.25 µM	8.61 ± 1.2 µM	3.5
O=C1c2cc(NS(=O)(=O)c3ccccc3)ccc2-n2c1nc1ccccc1c2=O [4a]	99.5 ± 1.7 % of Control	98.3 ± 3.0 % of Control	43.29 ± 3.1 % of Control	48.5 ± 1.5 % of Control	0.97 ± 0.16 µM	9.98 ± 0.64 µM	10.3
O=c1c(O)c(-c2ccc(O)c(O)c2)oc2cc(O)cc(O)c12 [Quercetin, reference compound]	99.6 ± 1.1 % of Control	99.5 ± 1.3 % of Control	55.21 ± 1.6 % of Control	63.27 ± 2.1 % of Control			
O=C1c2cc(NS(=O)(=O)c3cccc(F)c3)ccc2-n2c1nc1ccccc1c2=O [4g]	100 ± 1.3 % of Control	99.7 ± 0.8 % of Control	59.88 ± 0.9 % of Control	68.83 ± 2.7 % of Control	3.21 ± 0.39 µM	21.6 ± 1.79 µM	6.7
O=C1c2cc(NS(=O)(=O)c3c(Cl)cccc3Cl)ccc2-n2c1nc1ccccc1c2=O [4p]	99.6 ± 2.7 % of Control	99.3 ± 2.9 % of Control	48.49 ± 4.5 % of Control	65.6 ± 2.2 % of Control	0.62 ± 0.09 µM	> 50 µM	
COc1ccc(S(=O)(=O)Nc2ccc3nc4n(c(=O)c3c2)-c2ccccc2C4=O)cc1OC [8k]	99.6 ± 1.2 % of Control	99.5 ± 2.7 % of Control	44.37 ± 0.5 % of Control	52.28 ± 2.3 % of Control	> 50 µM	> 50 µM	
O=C1c2cc(NS(=O)(=O)c3ccc(OC(F)(F)F)cc3)ccc2-n2c1nc1ccccc1c2=O [4m]	99.6 ± 0.8 % of Control	99.3 ± 2.1 % of Control	37.89 ± 4.3 % of Control	44.98 ± 2.5 % of Control	7.75 ± 0.21 µM	10.2 ± 1.24 µM	
CC(=O)Nc1ccc(S(=O)(=O)Nc2ccc3nc4n(c(=O)c3c2)-c2ccccc2C4=O)cc1 [8i]	99.8 ± 1.2 % of Control	99.4 ± 1.3 % of Control	48.46 ± 1.6 % of Control	59.63 ± 2.5 % of Control	> 50 µM	25.9 ± 2.38 µM	
Cc1ccc(S(=O)(=O)Nc2ccc3nc4n(c(=O)c3c2)-c2ccccc2C4=O)cc1 [8b]	101.2 ± 3.1 % of Control	99.8 ± 2.4 % of Control	42.01 ± 1.7 % of Control	51.37 ± 2.1 % of Control	4.55 ± 0.8 µM	> 50 µM	
O=C1c2cc(NS(=O)(=O)c3ccc(F)cc3)ccc2-n2c1nc1ccccc1c2=O [4f]	99.4 ± 1.6 % of Control	98.7 ± 1.1 % of Control	45.23 ± 2.2 % of Control	55.26 ± 0.5 % of Control	0.56 ± 0.07 µM	11.9 ± 1.86 µM	21.2
CC(C)c1cc(C(C)C)c(S(=O)(=O)Nc2ccc3c(c2)C(=O)c2nc4ccccc4c(=O)n2-3)c(C(C)C)c1 [4d]	99.4 ± 2.4 % of Control	97.3 ± 3.6 % of Control	42.53 ± 2.7 % of Control	50.1 ± 0.8 % of Control	> 50 µM	> 50 µM	
COc1ccc(S(=O)(=O)Nc2ccc3c(c2)C(=O)c2nc4ccccc4c(=O)n2-3)cc1OC [4k]	98.8 ± 1.9 % of Control	98.2 ± 3.4 % of Control	44.35 ± 1.5 % of Control	46.23 ± 0.6 % of Control	25.4 ± 1.53 µM	> 50 µM	
COc1ccc(S(=O)(=O)Nc2ccc3c(c2)C(=O)c2nc4ccccc4c(=O)n2-3)cc1 [4j]	99.7 ± 1.6 % of Control	99.1 ± 1.2 % of Control	38.24 ± 3.1 % of Control	41.69 ± 1.7 % of Control	> 50 µM	> 50 µM	
O=C1c2ccccc2-n2c1nc1ccc(NS(=O)(=O)c3ccccc3F)cc1c2=O [8h]	99.4 ± 1.4 % of Control	98.3 ± 2.7 % of Control	36.03 ± 3.0 % of Control	46.73 ± 3.5 % of Control	> 50 µM	> 50 µM	
O=C1c2ccccc2-n2c1nc1ccc(NS(=O)(=O)c3ccccc3C(F)(F)F)cc1c2=O [8o]	99.7 ± 2.4 % of Control	99.4 ± 1.1 % of Control	42.56 ± 2.1 % of Control	54.6 ± 3.8 % of Control	8.86 ± 0.76 µM	> 50 µM	
